# Test results reported in patent publication US12492188B2, “1H-benzo[D]imidazole derivatives as TLR9 inhibitors for the treatment of fibrosis” (BRISTOL-MYERS SQUIBB COMPANY, priority 2020, dated 2025).
# Like-named read-outs stand apart in the source and are kept apart here.
# How the values were obtained:
# Assay type in all cases: cell-based
# human TLR9 = target: T1, human TLR9 (Homo sapiens, UniProt Q9NR96); assay: TLR9 inhibition reporter assay (HEK-Blue cells, secreted embryonic alkaline phosphatase reporter)
# T1 construct: host or cells: HEK-Blue cells (HEK293-derived reporter line)
# T1 sequence (Q9NR96 26-1032): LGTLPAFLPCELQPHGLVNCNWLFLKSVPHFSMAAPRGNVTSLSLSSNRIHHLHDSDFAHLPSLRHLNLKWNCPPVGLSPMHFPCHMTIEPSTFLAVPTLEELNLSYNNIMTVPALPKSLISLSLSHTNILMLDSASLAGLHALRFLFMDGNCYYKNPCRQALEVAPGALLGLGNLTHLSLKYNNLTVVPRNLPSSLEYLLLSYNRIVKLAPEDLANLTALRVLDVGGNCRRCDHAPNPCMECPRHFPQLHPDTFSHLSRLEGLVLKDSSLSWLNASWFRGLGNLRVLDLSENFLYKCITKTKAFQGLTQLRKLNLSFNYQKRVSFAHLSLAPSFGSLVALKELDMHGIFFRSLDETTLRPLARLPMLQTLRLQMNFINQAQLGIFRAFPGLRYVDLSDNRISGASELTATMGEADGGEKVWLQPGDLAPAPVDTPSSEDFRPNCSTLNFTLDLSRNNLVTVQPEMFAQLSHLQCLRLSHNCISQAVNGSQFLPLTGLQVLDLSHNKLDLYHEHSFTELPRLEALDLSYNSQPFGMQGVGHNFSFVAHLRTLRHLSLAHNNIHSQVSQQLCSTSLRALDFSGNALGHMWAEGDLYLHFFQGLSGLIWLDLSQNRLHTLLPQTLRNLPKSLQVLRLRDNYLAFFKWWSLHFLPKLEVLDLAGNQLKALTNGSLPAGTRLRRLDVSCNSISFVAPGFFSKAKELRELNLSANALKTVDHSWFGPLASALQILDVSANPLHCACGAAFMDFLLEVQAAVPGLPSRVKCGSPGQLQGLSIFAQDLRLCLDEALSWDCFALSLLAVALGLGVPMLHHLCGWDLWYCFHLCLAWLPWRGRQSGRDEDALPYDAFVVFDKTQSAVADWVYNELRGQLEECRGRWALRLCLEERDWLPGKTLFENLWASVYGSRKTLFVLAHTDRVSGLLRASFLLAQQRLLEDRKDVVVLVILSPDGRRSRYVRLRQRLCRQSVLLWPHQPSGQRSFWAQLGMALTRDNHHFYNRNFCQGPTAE
# Outline: (§1)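 HEK-Blue cells overexpressing the respective receptor, with an NF-κB/AP-1-driven SEAP reporter, were pre-treated with compound (0.05 nM–50 μM) for 30 min at room temperature. Stimulation used gardiquimod 7.5 μM (TLR7), R848 15.9 μM (TLR8) or ODN2006 5 nM (TLR9); SEAP was read after 22 h at 37 °C as percent inhibition.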
# human TLR7 = target: T2, human TLR7 (Homo sapiens, UniProt Q9NYK1); assay: TLR7 inhibition reporter assay (HEK-Blue cells, secreted embryonic alkaline phosphatase reporter); conditions: HEK-Blue cells overexpressing human TLR7, stimulated with gardiquimod 7.5 μM; read-out: TLR 7 IC50
# T2 construct: host or cells: HEK-Blue cells (HEK293-derived reporter line)
# T2 sequence (Q9NYK1 27-1049): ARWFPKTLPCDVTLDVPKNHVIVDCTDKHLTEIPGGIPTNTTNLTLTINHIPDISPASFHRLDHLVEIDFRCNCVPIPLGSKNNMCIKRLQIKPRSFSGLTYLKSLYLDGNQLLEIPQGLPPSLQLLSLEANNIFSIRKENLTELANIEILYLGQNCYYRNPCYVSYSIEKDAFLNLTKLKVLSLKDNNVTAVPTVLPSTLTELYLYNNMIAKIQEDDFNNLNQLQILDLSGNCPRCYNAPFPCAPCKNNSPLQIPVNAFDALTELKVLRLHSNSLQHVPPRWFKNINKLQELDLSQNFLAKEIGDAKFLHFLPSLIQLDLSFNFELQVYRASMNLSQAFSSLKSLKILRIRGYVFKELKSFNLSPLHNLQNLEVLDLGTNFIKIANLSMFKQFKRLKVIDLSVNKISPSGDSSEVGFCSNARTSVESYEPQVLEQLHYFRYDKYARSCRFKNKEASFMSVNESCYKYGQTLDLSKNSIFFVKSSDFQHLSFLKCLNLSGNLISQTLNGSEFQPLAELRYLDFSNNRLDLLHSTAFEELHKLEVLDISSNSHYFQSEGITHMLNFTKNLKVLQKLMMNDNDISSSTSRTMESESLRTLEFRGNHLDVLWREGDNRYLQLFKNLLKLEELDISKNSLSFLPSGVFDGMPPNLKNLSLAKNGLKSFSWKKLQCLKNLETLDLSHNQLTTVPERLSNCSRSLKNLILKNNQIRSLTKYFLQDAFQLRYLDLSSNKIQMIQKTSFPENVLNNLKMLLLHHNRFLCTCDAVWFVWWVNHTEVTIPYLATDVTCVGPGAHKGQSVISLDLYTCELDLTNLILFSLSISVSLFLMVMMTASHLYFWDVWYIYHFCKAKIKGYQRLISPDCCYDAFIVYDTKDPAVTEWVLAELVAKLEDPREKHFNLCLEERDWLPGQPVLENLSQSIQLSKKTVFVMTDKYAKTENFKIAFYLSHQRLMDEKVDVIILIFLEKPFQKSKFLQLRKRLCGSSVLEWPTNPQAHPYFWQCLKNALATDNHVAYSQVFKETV
# Outline: as §1
# human TLR8 = target: T3, human TLR8 (Homo sapiens, UniProt Q9NR97); assay: TLR8 inhibition reporter assay (HEK-Blue cells, secreted embryonic alkaline phosphatase reporter); conditions: HEK-Blue cells overexpressing human TLR8, stimulated with R848 15.9 μM; read-out: TLR 8 IC50
# T3 construct: host or cells: HEK-Blue cells (HEK293-derived reporter line)
# T3 sequence (Q9NR97 27-1041): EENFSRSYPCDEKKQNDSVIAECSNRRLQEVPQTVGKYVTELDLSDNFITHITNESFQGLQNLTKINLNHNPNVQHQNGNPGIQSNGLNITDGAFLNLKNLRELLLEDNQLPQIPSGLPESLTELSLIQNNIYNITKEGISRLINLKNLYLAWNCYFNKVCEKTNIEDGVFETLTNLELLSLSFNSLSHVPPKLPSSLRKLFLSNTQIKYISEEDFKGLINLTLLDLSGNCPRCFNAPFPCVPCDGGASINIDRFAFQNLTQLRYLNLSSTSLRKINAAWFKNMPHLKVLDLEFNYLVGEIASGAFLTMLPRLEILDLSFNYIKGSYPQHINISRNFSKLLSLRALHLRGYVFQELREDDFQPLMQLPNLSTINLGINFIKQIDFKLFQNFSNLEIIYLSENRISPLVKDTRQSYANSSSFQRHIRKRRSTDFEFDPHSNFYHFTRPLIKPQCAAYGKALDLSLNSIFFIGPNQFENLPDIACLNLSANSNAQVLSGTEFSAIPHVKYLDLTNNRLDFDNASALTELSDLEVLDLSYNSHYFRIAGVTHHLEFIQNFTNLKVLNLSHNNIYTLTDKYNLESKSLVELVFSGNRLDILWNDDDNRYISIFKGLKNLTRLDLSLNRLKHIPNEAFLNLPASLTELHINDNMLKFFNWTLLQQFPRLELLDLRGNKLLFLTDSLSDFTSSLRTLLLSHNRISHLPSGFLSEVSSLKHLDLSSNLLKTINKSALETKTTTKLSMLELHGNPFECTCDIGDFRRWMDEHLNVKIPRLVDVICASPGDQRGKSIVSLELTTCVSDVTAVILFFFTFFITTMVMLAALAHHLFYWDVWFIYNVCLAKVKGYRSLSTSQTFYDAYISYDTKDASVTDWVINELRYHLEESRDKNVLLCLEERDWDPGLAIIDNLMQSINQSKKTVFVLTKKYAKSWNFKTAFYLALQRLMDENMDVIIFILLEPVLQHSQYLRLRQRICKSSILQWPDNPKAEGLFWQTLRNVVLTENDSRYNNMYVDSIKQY
# Outline: as §1
# [1] = HEK-Blue cells overexpressing human TLR9, stimulated with ODN2006 5 nM, read-out: TLR 9 IC50
Compound,IC50 (human TLR9) [nM],IC50 (human TLR9; [1]) [nM],IC50 (human TLR7) [nM],IC50 (human TLR8) [nM]
"Cn1c(-c2ccc(S(C)(=O)=O)cc2)nc2c(F)c(C3CCN(C4CC5CCC(C4)N5C4CCOCC4)CC3)ccc21 (centres unmarked) [Example 197, 4-fluoro-1-methyl-2-(4-(methylsulfonyl)phenyl)-5-(1-(8-(tetrahydro-2H-pyran-4-yl)-8-azabicyclo[3.2.1]octan-3-yl)piperidin-4-yl)-1H-benzo[d]imidazole]",160,155,> 50000,> 50000
"Cn1c(-c2ccc(S(C)(=O)=O)cc2)nc2c(F)c(C3CCN(C4CC5CCC(C4)N5C4CCOCC4)CC3)ccc21 (centres unmarked) [Example 198, 4-fluoro-1-methyl-2-(4-(methylsulfonyl)phenyl)-5-(1-(8-(tetrahydro-2H-pyran-4-yl)-8-azabicyclo[3.2.1]octan-3-yl)piperidin-4-yl)-1H-benzo[d]imidazole]",57,57,> 50000,> 50000
"Cn1c(-c2ccc(S(C)(=O)=O)cc2)nc2cc(C3CCN(C4CCN(CC5CC5)CC4)CC3)cc(F)c21 [Example 203, 5-(1′-(cyclopropylmethyl)-[1,4′-bipiperidin]-4-yl)-7-fluoro-1-methyl-2-(4-(methylsulfonyl)phenyl)-1H-benzo[d]imidazole]",110,108,15400,> 50000
"Cn1c(-c2ccc(S(C)(=O)=O)cc2)nc2cc(C3CCN(C4CCN(CC5COC5)CC4)CC3)cc(F)c21 [Example 204, 7-fluoro-1-methyl-2-(4-(methylsulfonyl)phenyl)-5-(1′-(oxetan-3-ylmethyl)-[1,4′-bipiperidin]-4-yl)-1H-benzo[d]imidazole]",780,781,> 50000,> 50000
"Cn1c(-c2ccc(S(C)(=O)=O)cc2)nc2cc(C3CCN(C4CCN(C5CCOCC5)CC4)CC3)cc(F)c21 [Example 207, 7-fluoro-1-methyl-2-(4-(methylsulfonyl)phenyl)-5-(1′-(tetrahydro-2H-pyran-4-yl)-[1,4′-bipiperidin]-4-yl)-1H-benzo[d]imidazole]",110,110,18300,> 50000

# The next lines start with the values.
IC50 (human TLR9) [nM],IC50 (human TLR9; [1]) [nM],IC50 (human TLR7) [nM],IC50 (human TLR8) [nM],Compound
97,97,14400,> 50000,"CC(C)CN1CCC(N2CCC(c3cc(F)c4c(c3)nc(-c3ccc(S(C)(=O)=O)cc3)n4C)CC2)CC1 [Example 201, 7-fluoro-5-(1′-isobutyl-[1,4′-bipiperidin]-4-yl)-1-methyl-2-(4-(methylsulfonyl)phenyl)-1H-benzo[d]imidazole]"
500,502,> 50000,> 50000,"Cn1c(-c2ccc(S(C)(=O)=O)cc2)nc2cc(C3CCN(C4CCN(C5CC5)CC4)CC3)cc(F)c21 [Example 202, 5-(1′-cyclopropyl-[1,4′-bipiperidin]-4-yl)-7-fluoro-1-methyl-2-(4-(methylsulfonyl)phenyl)-1H-benzo[d]imidazole]"
110,114,21300,> 50000,"Cn1c(-c2ccc(S(C)(=O)=O)cc2)nc2cc(C3CCN(C4CCN(C5CCC5)CC4)CC3)cc(F)c21 [Example 205, 5-(1′-cyclobutyl-[1,4′-bipiperidin]-4-yl)-7-fluoro-1-methyl-2-(4-(methylsulfonyl)phenyl)-1H-benzo[d]imidazole]"
840,840,> 50000,> 50000,"Cn1c(-c2ccc(S(C)(=O)=O)cc2)nc2cc(C3CCN(C4CCN(C5COC5)CC4)CC3)cc(F)c21 [Example 206, 7-fluoro-1-methyl-2-(4-(methylsulfonyl)phenyl)-5-(1′-(oxetan-3-yl)-[1,4′-bipiperidin]-4-yl)-1H-benzo[d]imidazole]"
940,937,> 50000,> 50000,"COCCN1CCC(N2CCC(c3cc(F)c4c(c3)nc(-c3ccc(S(C)(=O)=O)cc3)n4C)CC2)CC1 [Example 208, 7-fluoro-5-(1′-(2-methoxyethyl)-[1,4′-bipiperidin]-4-yl)-1-methyl-2-(4-(methylsulfonyl)phenyl)-1H-benzo[d]imidazole]"
81,81,16700,16700,"CC(C)CN1C2CCC1CC(N1CCC(c3cc(F)c4c(c3)nc(-c3ccc(S(C)(=O)=O)cc3)n4C)CC1)C2 (centres unmarked) [Example 209, 7-fluoro-5-(1-(8-isobutyl-8-azabicyclo[3.2.1]octan-3-yl)piperidin-4-yl)-1-methyl-2-(4-(methylsulfonyl)phenyl)-1H-benzo[d]imidazole]"
120,–,> 50000,> 50000,"CC(C)CN1C2CCC1CC(N1CCC(c3cc(F)c4c(c3)nc(-c3ccc(S(C)(=O)=O)cc3)n4C)CC1)C2 (centres unmarked) [Example 210, 7-fluoro-5-(1-(8-isobutyl-8-azabicyclo[3.2.1]octan-3-yl)piperidin-4-yl)-1-methyl-2-(4-(methylsulfonyl)phenyl)-1H-benzo[d]imidazole]"
